{"source": "patent US20160067301A1", "about": "“ANTAGONISM OF ABCG4, LYN KINASE, AND C-CBL E3 LIGASE TO INCREASE PLATELET COUNT AS THERAPY FOR THROMBOCYTOPENIA” (The Trustees of Columbia University in the City of New York, priority 2013, published 2016)", "key": {"[1]": {"test_system": "cell surface c-MPL on MkPs", "assay": "Cell surface c-MPL expression on MkPs by flow cytometry", "type": "cell-based, mouse", "conditions": "for cell surface c-MPL levels in MkPs: bone marrow progenitor cells from WT or Abcg4−/− mice, TPO 10 ng/ml, 2 hrs, Tolimidone 10 μM, CRIN-1 1 μM (FIG. 18)", "protocol": "After harvesting bone marrow progenitor cells, RBCs were lysed, and the cells were resuspended in FACS buffer, Bone marrow cells were stained for MkPs as stated above, and c-MPL or isotype control antibodies were included. Cells were then washed and stained with a fluorescently conjugated secondary rabbit-specific antibody to detect the antibody to c-MPL for a further 30 min on ice. Following this, the cells were washed, resuspended in FACS buffer and run on an LSRII flow cytometer. MEPs were identified as Lin^−c-Kit^+CD16/CD32^loCD34^loCD41^−, and MkPs were identified as Lin^−c-Kit^+CD16/CD32^loCD34^loCD41^+."}, "[2]": {"test_system": "MkPs", "assay": "MkP proliferation (EdU incorporation, flow cytometry)", "type": "cell-based, mouse", "conditions": "16 h with TPO"}, "[3]": {"test_system": "c-CBL phosphorylation in MkPs", "assay": "c-CBL tyrosine phosphorylation in MkPs in response to TPO (phospho-flow cytometry)", "type": "cell-based, mouse", "conditions": "for c-CBL phosphorylation: 5 min TPO, CD 3 mM or CD-chol 30 min, rHDL 20 μg apoA-I ml-1 2 h, SU6656 10 μg ml-1 2 h", "protocol": "Bone marrow progenitor cells were stimulated with TPO at the indicated concentration for the specified period of time at 37° C. and then immediately diluted with ice-cold buffer and placed on ice to prevent further changes in phosphorylation. Cells were then centrifuged at 800 g for 2 min, and the pellet was resuspended in BD fix buffer (BD Biosciences) for 10 min on ice. The cells were washed with BD flow cytometry staining buffer, centrifuged, and then resuspended in BD cytofix/perm buffer III for 20 min. After this, the cells were washed and resuspended in BD staining buffer and incubated with lineage (Sca1, CD127, CD45R, CD19, CD11b, CD3e, TER-119, CD2, CD8, CD4 and Ly-6G, all FITC; eBioscience) and progenitor cell markers (c-Kit, CD16/CD32 (FcγRII/III), CD34, CD41 and antibody to p-c-CBL (Tyr700 human, Tyr698 mouse; BD Biosciences)) or an isotype control for 30 min on ice. The cells were then washed, resuspended in FACS buffer and run on an LSRII. The amount of phosphorylated c-Cbl was normalized against that of isotype control staining."}, "[4]": {"test_system": "bone marrow HSPCs", "assay": "MK-CFU megakaryocyte colony-forming assay", "type": "cell-based, mouse", "conditions": "ABCG4-deficient cells (FIG. 13c)", "protocol": "Primary bone marrow HSPCs obtained by FACS were plated in methylcellulose-based medium (5,000 cells per assay) containing TPO (50 ng interleukin-6 (IL-6) (20 ng ml^−1) and IL-3 (10 ng ml^−1) and incubated for 8 d according to the manufacturer's protocol (Megacult-C, Stemcell Technologies). Cultures were fixed, and megakaryocyte colonies were visualized by staining for acetylcholinesterase activity. Nuclei were counterstained with Harris' hematoxylin. Colonies containing more than three megakaryocytes were scored as MK-CFUs."}, "[5]": {"test_system": "WT and Abcg4−/− mice", "assay": "Platelet count after a single TPO injection in WT and Abcg4−/− mice", "type": "in vivo, mouse", "conditions": "for increase in the number of platelets: single dose TPO 50 μg per kg body weight (FIG. 2i)", "source_text": "The Institutional Animal Care and Use Committee of Columbia University approved all the mouse studies. Abcg4−/−, Abcg1−/− Abca1−/− and Abcg1−/− mice in a C57BL/6J background were created as described and used in this study. Abcg4−/− mice were backcrossed onto C57BL/6J mice for more than ten generations. WT (C57BL/6J) and Ldlr−/− (B6.129S7-Ld1rtm1Her) mice were obtained from The Jackson Laboratory (Bar Harbor, Me.). For bone marrow transplantation studies, bone marrow from WT, Abcg4−/−, Abcg1−/− Abca1−/− or Abcg1−/− mice was transplanted into WT or Ldlr−/− recipient mice as described. For atherosclerosis studies, bone marrow-transplanted recipient mice were fed a Western diet (TD88137, Harlan Teklad) for the indicated period of time. Bone marrow-specific retro-viral expression of murine c-MPL^W515L was established as described44 using WT C57BL/6J mice as the recipient and WT C57BL/6J or Abcg4−/− mice as the bone marrow donor. Where indicated, vehicle (saline), rHDL or TPO (R&D Systems) was injected at the indicted dose into the mice through the tail vein. rHDL (CSL-111) was provided by CSL Behring AG, Bern, Switzerland; CSL-111 is composed of human apoA-I and phosphatidylcholine from soy bean in a ratio of 1:150. […]\nComplete blood counts were quantified using whole blood collected from tail bleeding. A FORCYTE Veterinary Hematology Analyzer (Oxford Science, Inc.) was used for the analysis."}, "[6]": {"conditions": "WT MkPs, with TPO 30 ng ml-1, CD 3 mM or CD-chol 30 min, rHDL 20 μg ml-1, MG132 10 μM 2 h, SU6656 10 μg ml-1 2 h"}, "[7]": {"conditions": "Abcg4−/− MkPs, with TPO 30 ng ml-1, CD 3 mM or CD-chol 30 min, rHDL 20 μg ml-1, SU6656 10 μg ml-1 2 h"}}, "note": "Where a SMILES comes first, the peptide text is derived from it. The star is where a group is joined. Cbz = O=C(OCc1ccccc1)*", "data": [{"compound": "CC(C)C[C@@H](C=O)NC(=O)[C@H](CC(C)C)NC(=O)[C@H](CC(C)C)NC(=O)OCc1ccccc1", "note": "[MG132] (Cbz-Leu-Leu-Leu-aldehyde)", "values": [{"measurement": "cell surface c-MPL expression", "setting": "[1]; [6]", "value": "increased c-MPL expression to a level similar to that in Abcg4−/− cells"}]}, {"compound": "methyl-β-cyclodextrin", "values": [{"measurement": "MkP proliferation (EdU incorporation)", "setting": "[2]; Abcg4−/− MkPs, CD 3 mM or CD-chol 30 min pretreatment, rHDL 20 μg ml-1 16 h", "value": "significantly reduced to levels similar to those in cyclodextrin-treated WT MkPs"}, {"measurement": "MkP proliferation (EdU incorporation)", "setting": "[2]; Lyn−/− MkPs, cholesterol loading or depletion treatments", "value": "unresponsive"}, {"measurement": "MkP proliferation (EdU incorporation)", "setting": "[2]; WT MkPs, CD 3 mM or CD-chol 30 min pretreatment, rHDL 20 μg ml-1 16 h", "value": "decreased the proliferation"}, {"measurement": "cell surface c-MPL expression", "setting": "[1]; [7]", "value": "significantly reduced to levels similar to those in cyclodextrin-treated WT MkPs"}, {"measurement": "c-CBL phosphorylation", "setting": "[3]; Abcg4−/− MkPs", "value": "increased c-CBL phosphorylation"}, {"measurement": "c-CBL phosphorylation", "setting": "[3]; WT MkPs", "value": "increased c-CBL phosphorylation"}, {"measurement": "number of megakaryocyte colonies", "setting": "[4]", "value": "reversed the increase in the number of magakaryecyte colonies"}]}, {"compound": "CN(C)S(=O)(=O)c1ccc2c(c1)/C(=C/c1cc3c([nH]1)CCCC3)C(=O)N2", "note": "[SU6656]", "values": [{"measurement": "cell surface c-MPL expression", "setting": "[1]; [7]", "value": "increased cell surface expression of c-MPL"}, {"measurement": "cell surface c-MPL expression", "setting": "[1]; [6]", "value": "increased cell surface expression of c-MPL"}, {"measurement": "c-CBL phosphorylation", "setting": "[3]; Abcg4−/− MkPs", "value": "markedly decreased c-CBL phosphorylation"}, {"measurement": "difference in response to TPO between WT and Abcg4−/− MkPs (c-CBL phosphorylation, c-MPL expression)", "setting": "[3]; SU6656 10 μg ml-1 for 2 h", "value": "abolished the difference in response to TPO"}, {"measurement": "c-CBL phosphorylation", "setting": "[3]; WT MkPs", "value": "markedly decreased c-CBL phosphorylation"}]}, {"compound": "Tolimidone", "values": [{"measurement": "cell surface c-MPL expression", "setting": "[1]; Abcg4−/− MkPs from hypercholesterolemic (WTD-fed) Ldlr−/− recipient mice, 10 μM, TPO, 2 h", "value": "reduced cell surface c-MPL expression"}, {"measurement": "cell surface expression of c-MPL", "setting": "[1]; Abcg4−/− MkPs from normocholesterolemic mice (FIG. 14)", "value": "completely reversed the increased cell surface expression of c-MPL"}, {"measurement": "cell surface c-MPL expression", "setting": "[1]; WT MkPs from hypercholesterolemic (WTD-fed) Ldlr−/− recipient mice, 10 μM, TPO, 2 h", "value": "reduced cell surface c-MPL expression"}, {"measurement": "cell surface c-MPL levels in MkPs", "setting": "[1]", "value": "decreases"}]}, {"compound": "TPO: Thrombopoietin (R&D Systems), growth factor regulating megakaryocyte and platelet development", "values": [{"measurement": "increase of platelet count after single injection of TPO, compared with wild type", "setting": "[5]; Abcg4−/− mice (FIG. 17)", "value": "much more pronounced"}, {"measurement": "increase in the number of platelets", "setting": "[5]; Abcg4−/− mice", "value": 2.1, "unit": "fold"}, {"measurement": "increase in the number of platelets", "setting": "[5]; WT mice", "value": 1.4, "unit": "fold"}, {"measurement": "platelet count after single injection of TPO", "setting": "[5]; wild type mice (FIG. 17)", "value": "induced increase of platelet count"}]}, {"compound": "COc1c2c(cc3c1C(CN)N(C)CC3)OCO2", "note": "(stereo not shown) [CRIN-1]", "values": [{"measurement": "cell surface c-MPL levels in MkPs", "setting": "[1]", "value": "increases"}]}]}
